In patent US11414384B2, “P300/CBP hat inhibitors” (Constellation Pharmaceuticals, Inc., priority 2018, dated 2022):

Key:
[1] = target: p300 HAT domain (residues 1287-1666) (Homo sapiens (Human), UniProt Q09472); test: p300 HAT SPA assay (scintillation proximity assay, acetylation of biotinylated H3(1-21) peptide); type: biochemical; settings: p300 HAT domain; average of at least 2 replicate titrations; read-out: P300 HAT SPA IC50
Summary of the method: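 Scintillation proximity readout of acetylated biotin-H3(1-21) captured on streptavidin plates after 1.5 hr at RT; enzyme was Ni2+/anion-exchange-purified HAT domain in 20 mM Hepes pH 7.5. Inhibitor IC50s calculated from the data.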

[2] = target: full length p300 (Homo sapiens (Human), UniProt Q09472); test: full length p300 SPA assay; type: biochemical; settings: average of at least 2 replicate titrations, read-out: FL P300 IC50
Procedure: Reactions were initiated with 12.5 μL 2 μM biotinylated H3(1-21) peptide (New England Peptide) and run for 1 hr at RT, then quenched with 20 μL stop solution (200 mM Tris pH 8.0, 200 mM EDTA, 2M NaCl, 160 μM anacardic acid). 35 μL of the reaction volume was transferred to a 384-well streptavidin FlashPlate (PerkinElmer) using a Bravo liquid handler (Velocity 11) and incubated for 1.5 hr at RT. Plates were aspirated, washed with 95 μL wash buffer (15 mM Tris pH 8.5, 0.069 μM Brij-35), aspirated, sealed, and scintillation counts read on a Topcount (PerkinElmer). Data were analyzed in Genedata to determine inhibitor IC50 values.
The full length p300 SPA assay was run following the same protocol as p300 HAT SPA assay, but used 6 nM purified full length p300 (purchased from Active Motif) in place of the purified p300-HAT domain.

[3] = test system: acetylation of chromatin at H3K18 (catalyzed by p300 and CBP) in HCT-116 cells; test: H3K18Ac MSD cellular assay; type: cell-based; settings: 2 hr treatment, average of at least 2 replicate titrations
Summary of the method: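 Cellular H3K18 acetylation quantified by electrochemiluminescent MSD readout, lysates captured on anti-total-histone plates and probed with anti-H3K18ac plus Sulfo-Tag secondary. Before lysis, HCT-116 cells in RPMI/10% FBS, seeded the prior night, were exposed to compounds for 2 h at 37 °C.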

full length p300, sequence (Q09472 whole entry): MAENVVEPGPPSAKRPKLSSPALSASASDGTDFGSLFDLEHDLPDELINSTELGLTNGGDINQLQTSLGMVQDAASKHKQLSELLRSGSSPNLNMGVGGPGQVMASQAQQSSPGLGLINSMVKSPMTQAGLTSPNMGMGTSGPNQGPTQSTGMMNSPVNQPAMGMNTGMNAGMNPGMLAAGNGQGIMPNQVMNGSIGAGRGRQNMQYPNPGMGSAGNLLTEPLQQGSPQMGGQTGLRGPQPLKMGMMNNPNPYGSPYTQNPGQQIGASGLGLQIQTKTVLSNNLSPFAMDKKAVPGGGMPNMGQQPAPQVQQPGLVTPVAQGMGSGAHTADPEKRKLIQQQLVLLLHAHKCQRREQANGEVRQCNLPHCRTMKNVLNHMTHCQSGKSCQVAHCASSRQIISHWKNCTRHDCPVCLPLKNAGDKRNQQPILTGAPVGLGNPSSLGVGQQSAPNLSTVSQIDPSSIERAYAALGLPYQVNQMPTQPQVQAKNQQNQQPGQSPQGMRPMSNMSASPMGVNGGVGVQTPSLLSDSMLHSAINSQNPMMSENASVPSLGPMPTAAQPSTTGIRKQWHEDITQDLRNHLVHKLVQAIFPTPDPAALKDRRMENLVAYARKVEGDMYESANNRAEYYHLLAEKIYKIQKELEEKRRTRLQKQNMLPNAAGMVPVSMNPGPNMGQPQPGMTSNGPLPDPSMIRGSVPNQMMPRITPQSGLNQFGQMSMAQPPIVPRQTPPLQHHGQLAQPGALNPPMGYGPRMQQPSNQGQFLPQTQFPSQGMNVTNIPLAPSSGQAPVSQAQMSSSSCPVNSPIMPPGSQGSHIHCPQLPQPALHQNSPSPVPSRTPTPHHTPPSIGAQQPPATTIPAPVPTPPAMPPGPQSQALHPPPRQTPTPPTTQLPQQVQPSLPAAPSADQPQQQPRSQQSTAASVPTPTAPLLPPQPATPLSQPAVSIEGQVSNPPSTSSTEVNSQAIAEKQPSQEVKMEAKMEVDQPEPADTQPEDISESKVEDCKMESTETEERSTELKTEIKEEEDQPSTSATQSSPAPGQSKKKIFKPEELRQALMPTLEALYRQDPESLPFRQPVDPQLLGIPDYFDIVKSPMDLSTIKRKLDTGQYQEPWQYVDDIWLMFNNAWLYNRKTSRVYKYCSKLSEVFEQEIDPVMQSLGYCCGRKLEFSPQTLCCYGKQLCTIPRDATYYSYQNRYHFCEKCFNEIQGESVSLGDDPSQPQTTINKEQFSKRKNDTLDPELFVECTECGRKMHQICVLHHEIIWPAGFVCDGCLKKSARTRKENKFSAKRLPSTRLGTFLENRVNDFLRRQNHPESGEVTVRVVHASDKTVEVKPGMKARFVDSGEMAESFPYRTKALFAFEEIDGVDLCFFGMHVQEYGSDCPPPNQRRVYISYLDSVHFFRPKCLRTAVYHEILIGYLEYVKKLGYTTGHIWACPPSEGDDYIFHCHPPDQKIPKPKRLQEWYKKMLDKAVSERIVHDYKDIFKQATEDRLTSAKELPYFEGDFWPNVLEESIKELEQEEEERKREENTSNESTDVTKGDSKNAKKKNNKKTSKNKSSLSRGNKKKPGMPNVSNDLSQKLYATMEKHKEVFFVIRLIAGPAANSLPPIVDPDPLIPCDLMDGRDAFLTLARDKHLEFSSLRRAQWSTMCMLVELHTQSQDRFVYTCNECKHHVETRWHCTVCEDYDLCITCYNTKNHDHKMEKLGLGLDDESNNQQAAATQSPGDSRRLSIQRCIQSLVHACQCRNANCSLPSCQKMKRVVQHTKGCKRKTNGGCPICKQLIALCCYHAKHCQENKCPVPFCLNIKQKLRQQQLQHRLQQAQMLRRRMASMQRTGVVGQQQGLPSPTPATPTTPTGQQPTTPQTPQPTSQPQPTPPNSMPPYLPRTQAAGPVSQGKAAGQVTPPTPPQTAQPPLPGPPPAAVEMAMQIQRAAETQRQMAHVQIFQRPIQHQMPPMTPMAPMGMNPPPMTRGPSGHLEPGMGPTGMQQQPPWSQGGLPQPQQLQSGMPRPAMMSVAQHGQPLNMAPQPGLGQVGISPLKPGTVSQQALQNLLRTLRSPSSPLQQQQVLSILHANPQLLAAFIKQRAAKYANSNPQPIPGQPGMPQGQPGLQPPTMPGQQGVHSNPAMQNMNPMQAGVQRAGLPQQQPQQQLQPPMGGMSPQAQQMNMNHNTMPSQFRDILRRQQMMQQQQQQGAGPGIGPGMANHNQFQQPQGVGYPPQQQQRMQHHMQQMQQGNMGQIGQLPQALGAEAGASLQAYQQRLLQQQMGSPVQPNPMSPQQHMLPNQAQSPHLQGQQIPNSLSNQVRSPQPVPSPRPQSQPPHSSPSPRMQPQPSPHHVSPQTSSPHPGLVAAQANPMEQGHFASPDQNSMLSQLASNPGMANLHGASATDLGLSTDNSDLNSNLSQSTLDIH
p300 HAT domain (residues 1287-1666), sequence (Q09472 1287-1666): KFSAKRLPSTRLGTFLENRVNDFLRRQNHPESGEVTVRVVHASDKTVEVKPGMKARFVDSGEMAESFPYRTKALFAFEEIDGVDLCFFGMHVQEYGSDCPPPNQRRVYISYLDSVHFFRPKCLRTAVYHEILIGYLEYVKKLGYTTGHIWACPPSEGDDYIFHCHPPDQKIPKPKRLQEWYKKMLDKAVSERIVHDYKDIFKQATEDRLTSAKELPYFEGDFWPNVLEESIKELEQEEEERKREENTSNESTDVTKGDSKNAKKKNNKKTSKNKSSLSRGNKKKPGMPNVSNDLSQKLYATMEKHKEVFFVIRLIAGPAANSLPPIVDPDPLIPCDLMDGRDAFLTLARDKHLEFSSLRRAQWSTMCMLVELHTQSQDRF

IC50 [1] [nM] | IC50 [2] [nM] | EC50 ([3]; Homo sapiens, HCT-116, 2 h) [nM] | EC50 [3] [nM] | Structure (SMILES)
1290 | 25.5 | 324 |  | COc1ccc2c(C(=O)C(NCCc3ccc(S(N)(=O)=O)cc3)c3ccccc3)c[nH]c2c1 (single isomer, unassigned) [51 Isomer 2]
36.2 | 2.19 | 154 |  | CN1CCC(Oc2ccc3c(C(=O)C(NCCc4ccc(C#N)cc4)c4ccccc4)c[nH]c3c2)CC1 (single isomer, unassigned) [126 Isomer 2]
6550 | 283 | 29400 |  | O=C(c1cnc2ccccn12)C(NCCc1ccc(Cl)cc1)c1ccccc1 (single isomer, unassigned) [46 Isomer 2]
1150 | 14.6 | 193 |  | O=C(c1c[nH]c2cc(-c3cccnc3)ccc12)C(NCCc1ccc(F)cc1)c1ccccc1 (single isomer, unassigned) [81 Isomer 2]
8.76 | 0.711 | 19.3 |  | CCNC(=O)c1ccc2c(C(=O)C(NCC(C)c3ccc(C#N)cc3)c3ccccc3)c[nH]c2c1 (single isomer, unassigned) [75 Isomer 4]
5550 | 219 | 13400 |  | Cc1nc(C(=O)C(NCCc2ccc(Cl)cc2)c2ccccc2)c2ccccn12 (single isomer, unassigned) [45 Isomer 1]
2210 | 55.3 | 754 |  | CN(C)C(=O)CCc1ccc2c(C(=O)C(NCCc3ccc(F)cc3)c3ccccc3)c[nH]c2c1 (single isomer, unassigned) [49 Isomer 2]
26 | 14 |  | 36.6 | CCNC(=O)c1ccc2c(C(=O)[C@@H](NCCc3ccc(C#N)cc3)c3ccccc3)c[nH]c2c1 (single isomer, unassigned) [146 Isomer 2]
17 | < 2 | 46.6 |  | CNC(=O)c1ccc2c(C(=O)C(NCCc3ccc(C#N)cc3)c3ccccc3)c[nH]c2c1 (single isomer, unassigned) [156 Isomer 2]
8050 | 355 |  |  | CN(C)C(=O)c1cccc2c(C(=O)C(NCCc3ccc(Cl)cc3Cl)c3ccccc3)c[nH]c12 (single isomer, unassigned) [148 Isomer 2]
501 | 37.2 |  |  | CNC(=O)Cc1ccc2c(C(=O)C(NCCc3ccc(C#N)cc3)c3ccccc3)c[nH]c2c1 (single isomer, unassigned) [62 Isomer 1]
200 | 11.6 | 113 |  | CNC(=O)Cn1cc(-c2ccc3c(C(=O)C(NCCc4ccc(Cl)cc4)c4ccccc4)c[nH]c3c2)cn1 (single isomer, unassigned) [87 Isomer 2]
1380 | 25.1 |  |  | O=C(c1c[nH]c2cc(-c3ccccn3)ccc12)C(NCCc1ccc(F)cc1)c1ccccc1 (single isomer, unassigned) [105 Isomer 2]
2190 | 91.1 |  |  | COc1ccc(CCNC(C(=O)c2c[nH]c3c(CCC(=O)N(C)C)cccc23)c2ccccc2)cc1 (single isomer, unassigned) [29 Isomer 1]
12900 | 744 |  |  | NS(=O)(=O)c1ccc(CCNC(C(=O)c2c[nH]c3cnccc23)c2ccccc2)cc1 (single isomer, unassigned) [32 Isomer 2]
> 60000 | 3940 |  |  | NS(=O)(=O)c1ccc(CCNC(C(=O)c2c[nH]c3cccc(Cl)c23)c2ccccc2)cc1 (single isomer, unassigned) [12 Isomer 2]
873 | 27.7 |  |  | COc1ccc(CCNC(C(=O)c2c[nH]c3ccccc23)c2ccccc2)cc1 (single isomer, unassigned) [8 Isomer 2]
4910 | 336 |  |  | CNC(=O)c1cccc2c(C(=O)C(NCCc3ccc(Cl)cc3Cl)c3ccccc3)c[nH]c12 (single isomer, unassigned) [147 Isomer 2]
> 60000 | 25900 |  |  | O=C(c1c[nH]c2ccccc12)C(NCCc1ccccn1)c1ccccc1 (single isomer, unassigned) [9 Isomer 1]
5920 | 223 |  |  | CN(C)CCNC(=O)c1cccc2c(C(=O)C(NCCc3ccc(Cl)cc3Cl)c3ccccc3)c[nH]c12 (single isomer, unassigned) [149 Isomer 1]
> 60000 | 9540 |  |  | NS(=O)(=O)c1ccc(CCNC(C(=O)c2c[nH]c3ccc(Cl)cc23)c2ccccc2)cc1 (single isomer, unassigned) [14 Isomer 1]

IC50 [1] [nM] | IC50 [2] [nM] | EC50 ([3]; Homo sapiens, HCT-116, 2 h) [nM] | EC50 [3] [nM] | Structure (SMILES)
33900 | 10600 |  |  | NS(=O)(=O)c1ccc(CCNC(C(=O)c2c[nH]c3ccncc23)c2ccccc2)cc1 (racemic) [Example 31, (rac)-4-(2-((2-oxo-1-phenyl-2-(1H-pyrrolo[3,2-c]pyridin-3-yl)ethyl)amino)ethyl) benzenesulfonamide]
140 | 6.03 |  |  | N#Cc1ccc(CCNC(C(=O)c2c[nH]c3cc(C(=O)NCCN4CCCC4=O)ccc23)c2ccccc2)cc1 (single isomer, unassigned) [164 Isomer 2]
2500 | 46.2 |  |  | CN(C)C(=O)Cc1ccc2c(C(=O)C(NCCc3ccc(C#N)cc3)c3ccccc3)c[nH]c2c1 (single isomer, unassigned) [63 Isomer 2]
6980 | 378 |  |  | Cc1[nH]c2ccccc2c1C(=O)C(NCCc1ccc(S(N)(=O)=O)cc1)c1ccccc1 (single isomer, unassigned) [16 Isomer 2]
3340 | 51.3 |  |  | CNC(=O)Cc1ccc2c(C(=O)C(NCCc3ccc(C#N)cc3)c3ccccc3)c[nH]c2c1 (single isomer, unassigned) [62 Isomer 2]
5900 | 274 |  |  | O=C(O)CCc1ccc2c(C(=O)C(NCCc3ccc(F)cc3)c3ccccc3)c[nH]c2c1 (single isomer, unassigned) [159 Isomer 2]
345 | 7.84 |  |  | CN(C)CCNC(=O)c1ccc2c(C(=O)C(NCCc3ccc(Cl)cc3Cl)c3ccccc3)c[nH]c2c1 (single isomer, unassigned) [153 Isomer 1]
4800 | 1310 |  |  | O=C(c1n[nH]c2ccccc12)C(NCCc1ccc(Cl)cc1)c1ccccc1 (single isomer, unassigned) [47 Isomer 1]
18100 | 472 |  |  | NS(=O)(=O)c1ccc(CCNC(C(=O)c2c[nH]c3cc(Cl)ccc23)c2ccccc2)cc1 (single isomer, unassigned) [13 Isomer 1]
1620 | 144 |  |  | NS(=O)(=O)c1ccc(CCNC(C(=O)c2c[nH]c3cc(Cl)ccc23)c2ccccc2)cc1 (single isomer, unassigned) [13 Isomer 2]
33200 | 728 |  |  | O=C(c1c[nH]c2ccccc12)C(NCCc1ccccn1)c1ccccc1 (single isomer, unassigned) [9 Isomer 2]
18500 | 593 |  |  | COc1ccc(CCN[C@H](C(=O)c2c[nH]c3c(C(C)C)cccc23)c2ccccc2)cc1 (single isomer, unassigned) [145 Isomer 1]
32300 | 732 |  |  | NS(=O)(=O)c1ccc(CCNC(C(=O)c2c[nH]c3cccnc23)c2ccccc2)cc1 (racemic) [Example 30, (rac)-4-(2-((2-oxo-1-phenyl-2-(1H-pyrrolo[3,2-b]pyridin-3-yl)ethyl)amino)ethyl) benzenesulfonamide]
584 | 29.1 |  |  | CNC(=O)c1ccc2c(C(=O)C(NCCc3ccc(C#N)cc3)c3ccccc3)c[nH]c2c1 (single isomer, unassigned) [156 Isomer 1]
21200 | 630 |  |  | O=C(c1c[nH]c2ccccc12)C(NCCc1cccnc1)c1ccccc1 (single isomer, unassigned) [10 Isomer 1]
19200 | 711 |  |  | O=C(c1c[nH]c2ccccc12)C(NCCc1cccnc1)c1ccccc1 (single isomer, unassigned) [10 Isomer 2]
39800 | 1350 |  |  | Cc1nc(C(=O)C(NCCc2ccc(Cl)cc2)c2ccccc2)c2ccccn12 (single isomer, unassigned) [45 Isomer 2]
9940 | 204 |  |  | O=C(c1c[nH]c2ccccc12)C(NCCc1ccncc1)c1ccccc1 (single isomer, unassigned) [11 Isomer 1]
5140 | 269 |  |  | COc1cccc(CCNC(C(=O)c2c[nH]c3ccccc23)c2ccccc2)c1 (single isomer, unassigned) [7 Isomer 2]
3330 | 120 |  |  | O=C(c1c[nH]c2ccccc12)C(NCCc1ccc(Cl)cc1)c1ccncc1 (racemic) [44 Racemic, (rac)-2-((4-chlorophenethyl)amino)-1-(1H-indol-3-yl)-2-(pyridin-4-yl)ethan-1-one]
10000 | 554 |  |  | NS(=O)(=O)c1ccc(CCNC(C(=O)c2c[nH]c3ncccc23)c2ccccc2)cc1 (single isomer, unassigned) [33 Isomer 2]
